Source: patent publication US20120129939A1, “POLYAMINE INHIBITORS FOR THE TREATMENT AND PREVENTION OF PARKINSON'S DISEASE” (priority 2009, published 2012)
Entries after “also recorded” stand apart in the source; their conditions may differ.

Tests used:
[1] = system: Murine L1210 leukemia cells; experiment: Polyamine determinations (HPLC) in cultured cells treated with DFMO or DFMO analogs; type: cell-based; parameters: PUT (amount): unit not given beside the values; SPD (amount) / SPM (amount) / [PUT] (concentration) / [SPD] (concentration) / [SPM] (concentration) / 48 hr avg put / 48 hr avg spd: unit not given here; conditions: for 24 hr avg put / 24 hr avg spd / 24 hr avg spm / 48 hr avg put / 48 hr avg spd / 48 hr avg spm: average of 10, 50, 100 uM treatments; for 24 hr avg put / 24 hr avg spd / 24 hr avg spm: 24 hour treatment
Method: Cell Growth. […] After 24 or 48 h, cells were removed from tubes for counting and viability determinations. Cell number was determined by electronic particle counting (Model 2F Coulter Counter; Coulter Electron-ics, Hialeah, Fla.) and confirmed periodically with hemocytometer measurements. […] The percentage of control growth was determined as follows. Cell samples were washed twice in cold PBS, and an aliquot of […] was removed for polyamine determination. The cells were pelleted, and the PBS supernatant was carefully removed with a cotton swab. […] The supernatant was frozen at -20° C. until analysis by HPLC. […] The column temperature was maintained at 65° C. with water from a circulating bath. The column was eluted at a flow rate of 16 ml/h with an initial column pressure of 500 psi which decreased with increasing ionic strength of the elution buffer. […] The column was reequilibrated for 10 min with Buffer 1 prior to loading the next sample. The column eluate was derivatized with 0.05% o-phthalaldehyde (Durrum Chemical Corp.) in 0.4M borate buffer (pH 10.4) containing […] and 0.09% Brij 35. The o-phthalaldehyde reagent flow rate was 8 ml/h. The derivatized eluate was analyzed for polyamine content by passing it through the flow cell of a […] (Fluoro-Monitor; American Instrument Co., Silver Spring, Md.) with a fixed excitation wavelength of 360 nm and emission wavelength of […]. Data were analyzed using a Hewlett Packard Model […] automation system.

[2] = system: transgenic mice (Line 61) expressing wildtype human α-synuclein; experiment: α-Synuclein transgenic mice, intraventricular infusion, immunohistochemical analysis of α-synuclein accumulation and neurodegeneration; type: in vivo
Description: α-Synuclein transgenic mice and infusion: For this study, heterozygous transgenic (tg) mice (Line 61) expressing wildtype human α-synuclein (hα-syn) under the regulatory control of the mThy1 promoter were used (Rockenstein, E. et al. 2002). These animals were selected because they display abnormal accumulation of detergent-insoluble hα-syn and develop hα-syn-immunoreactive inclusion like structures in the basal ganglia, cortex, and limbic system (Rockentein, E. et al. 2002). Furthermore, these animals also display neurodegenerative and motor deficits that mimic certain aspects of PD and Dementia with Lewy bodies (Fleming, S. et al. 2004). Infusions were performed as previously described (Veinbergs, I. et al. 2001). In order to evaluate the effects of the polyamine pathway, hα-syn tg mice (10-11 months old) received intraventricular infusions with a cannula implanted into the skull and connected to osmotic minipumps of either vehicle, Beneril, or DENSPM. A total of 15 hu-syn tg mice (n=5 per group) were used for these experiments. Mice were treated for six weeks; the compounds were dissolved in 0.9% NaCl at a concentration of 62 μM for DENSPM and 30 μM for Berenil at a pH of 7.2. Then, 200 μL of these solutions were filled into the osmotic minipump (Alzet) ensuring constant delivery ([…]). The minipump was implanted subcutaneously on the back under light anesthesia. An additional group of control non tg (n=5) mice were implanted with minipumps filled with vehicle only. All procedures were completed under the specifications set forth by the Institutional Animal Care and Use Committee.
Brains were removed and divided sagittally. One hemibrain was postfixed in phosphate-buffered 4% paraformaldehyde, pH 7.4, at 4° C. for 48 h and sectioned at 40 μm with a Vibratome 2000 (Leica) and placed in cryosolution, whereas the other hemibrain was snap frozen and stored at −70° C. for further analysis. Sections were first washed 3×5 minutes each in PBS. They were then pretreated with 1% Triton-X, 3% hydrogen peroxide in PBS for 15 minutes, washed again 3×5 min in PBS and blocked in 10% serum matching the animal the secondary antibody was raised in for 1 hour and then washed in PBS. Sections were then placed in primary antibody: mouse anti-TH, rabbit anti-(h) α-syn, mouse anti-MAP2 (Chemicon, (1:500)) overnight in 4° C. Sections were washed 3×5 min in PBS and then placed in biotynilated secondary antibody (1:100) (Vector Laboratories) for 2 hours. After washing again 3 times in PBS, sections were placed in 20% […] (DAB) (Vector Laboratories) for 20 seconds. The reaction with DAB was halted by immersing the sections in double distilled water. Sections were then mounted, dried and coverslipped with Entillin (Fisher Scientific). Sections for fluorescent immunohistochemistry were treated with mouse monoclonal anti-microtuble-associated protein 2 (MAP2, 1:50, Roche Molecular Biochemicals) primary antibody. This antibody was then detected with the fluorescein isothiocyanate (FITC)-conjugated anti-mouse secondary antibody (Vector Laboratories). Coverslips were air-dried overnight, mounted on slides with anti-fading media (Vectashield, Vector Laboratories), and imaged with the LSCM (MRC 1024, Bio-Rad). The immunolabeled blind-coded sections were imaged by LSCM (MRC1024, Bio-Rad) and analyzed with the Image 1.43 program (NIH), as previously described (Fleming, S. et al. 2004).

SAT1 = SAT1 (Homo sapiens, UniProt P21673); conditions: literature; cited from earlier work
[3] = 10 uM treatment, 24 hr treatment
[4] = 10 uM treatment, 48 hour treatment
[5] = 50 uM treatment, 24 hr treatment
[6] = 50 uM treatment, 48 hour treatment
[7] = 100 uM treatment, 24 hr treatment
[8] = 100 uM treatment, 48 hour treatment
[9] = infusion via osmotic minipumps six weeks, compared to syntgPBS

Chain of SAT1 (P21673 whole entry): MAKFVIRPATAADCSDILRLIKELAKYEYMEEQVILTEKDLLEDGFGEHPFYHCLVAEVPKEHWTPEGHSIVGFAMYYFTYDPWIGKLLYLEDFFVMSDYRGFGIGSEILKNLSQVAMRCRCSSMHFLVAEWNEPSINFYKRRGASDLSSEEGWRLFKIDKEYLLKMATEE

CCOC(=O)C(N)(CCCN)C(F)F (stereo not drawn) [DFMO Analog 1]
PUT (amount) [1, 3]: 14507
SPD (amount) [1, 3]: 1202403
SPM (amount) [1, 3]: 149654
[PUT] (concentration) [1, 3]: 0.007061
[SPD] (concentration) [1, 3]: 0.2484
[SPM] (concentration) [1, 3]: 0.4836
PUT (amount) [1, 4]: 43116
SPD (amount) [1, 4]: 1887299
SPM (amount) [1, 4]: 2659801
[PUT] (concentration) [1, 4]: 0.02099
[SPD] (concentration) [1, 4]: 2.316
[SPM] (concentration) [1, 4]: 8.595
SPD (amount) [1, 5]: 163914
SPM (amount) [1, 5]: 168544
[PUT] (concentration) [1, 5]: 0
[SPD] (concentration) [1, 5]: 0.2012
[SPM] (concentration) [1, 5]: 0.5447
PUT (amount) [1, 6]: 23355
SPD (amount) [1, 6]: 1774662
SPM (amount) [1, 6]: 4106905
[PUT] (concentration) [1, 6]: 0.01137
[SPD] (concentration) [1, 6]: 2.178
[SPM] (concentration) [1, 6]: 13.27
SPD (amount) [1, 7]: 377626
SPM (amount) [1, 7]: 500166
[SPD] (concentration) [1, 7]: 0.4635
[SPM] (concentration) [1, 7]: 1.616
SPD (amount) [1, 8]: 332304
SPM (amount) [1, 8]: 1568383
[PUT] (concentration) [1, 8]: 0
[SPD] (concentration) [1, 8]: 0.4078
[SPM] (concentration) [1, 8]: 5.068
24 hr avg put [1]: 0.002354
24 hr avg spd [1]: 0.3043
24 hr avg spm [1]: 0.8815
48 hr avg put ([1]; 48 hour treatment): 0.01078
48 hr avg spd ([1]; 48 hour treatment): 1.634
48 hr avg spm ([1]; 48 hour treatment): 8.978

CC(=O)NCC(=O)O.CC(=O)NCC(=O)O.N=C(N)c1ccc(N=NNc2ccc(C(=N)N)cc2)cc1 [Berenil, diminazene aceturate]
overall α-synuclein pathology / PD phenotype ([2]; infusion via osmotic minipumps six weeks): worsened
neuronal accumulation of α-synuclein in the basal ganglia (mean α-synuclein cell pixel intensity, caudo-putamen) ([2]; infusion via osmotic minipumps six weeks, DENSPM 62 μM, Berenil 30 μM, compared to transgenic mice treated with PBS): increased
dendritic complexity in the basal ganglia as detected by MAP2 (% of neuropil covered by MAP2 immunoreactive dendrites) [2, 9]: worsened; also recorded: decrease
tyrosine hydroxylase (TH) fibers (TH corrected optical density in the caudo-putamen) [2, 9]: worsened; also recorded: decreased
mean α-synuclein cell pixel intensity in the substantia nigra ([2]; infusion via osmotic pumps six weeks, compared to transgenic mice treated with PBS): increased
SAT1 activity (SAT1): reduces

NCCC[C@](N)(C(=O)O)C(F)F [DFMO, α-difluoromethylornithine, reference compound]
PUT (amount) [1, 3]: 63429
SPD (amount) [1, 3]: 2369255
SPM (amount) [1, 3]: 2363841
[PUT] (concentration) [1, 3]: 0.03087
[SPD] (concentration) [1, 3]: 2.908
[SPM] (concentration) [1, 3]: 7.639
SPD (amount) [1, 4]: 254356
SPM (amount) [1, 4]: 373610
[PUT] (concentration) [1, 4]: 0
[SPD] (concentration) [1, 4]: 0.3122
[SPM] (concentration) [1, 4]: 1.207
SPD (amount) [1, 5]: 542711
SPM (amount) [1, 5]: 1315606
[PUT] (concentration) [1, 5]: 0
[SPD] (concentration) [1, 5]: 0.6661
[SPM] (concentration) [1, 5]: 4.251
SPD (amount) [1, 6]: 44007
SPM (amount) [1, 6]: 482723
[PUT] (concentration) [1, 6]: 0
[SPD] (concentration) [1, 6]: 0.05401
[SPM] (concentration) [1, 6]: 1.56
SPD (amount) [1, 7]: 42842
SPM (amount) [1, 7]: 98016
[PUT] (concentration) [1, 7]: 0
[SPD] (concentration) [1, 7]: 0.05258
[SPM] (concentration) [1, 7]: 0.3167
SPD (amount) [1, 8]: 220260
SPM (amount) [1, 8]: 7071485
[PUT] (concentration) [1, 8]: 0
[SPD] (concentration) [1, 8]: 0.2703
[SPM] (concentration) [1, 8]: 22.85
24 hr avg put [1]: 0.01029
24 hr avg spd [1]: 1.209
24 hr avg spm [1]: 4.069
48 hr avg put ([1]; 48 hour treatment): 0
48 hr avg spd ([1]; 48 hour treatment): 0.2122
48 hr avg spm ([1]; 48 hour treatment): 8.54

CCOC(=O)C(CCCNC(=O)OC)(NC(=O)OC)C(F)F (stereo not drawn) [DFMO Analog 2]
PUT (amount) [1, 3]: 56963
SPD (amount) [1, 3]: 651020
SPM (amount) [1, 3]: 481606
[PUT] (concentration) [1, 3]: 0.02773
[SPD] (concentration) [1, 3]: 0.799
[SPM] (concentration) [1, 3]: 1.556
PUT (amount) [1, 4]: 124533
SPD (amount) [1, 4]: 3898235
SPM (amount) [1, 4]: 4032041
[PUT] (concentration) [1, 4]: 0.06062
[SPD] (concentration) [1, 4]: 4.784
[SPM] (concentration) [1, 4]: 13.03
PUT (amount) [1, 5]: 379546
SPD (amount) [1, 5]: 3615812
SPM (amount) [1, 5]: 2470785
[PUT] (concentration) [1, 5]: 0.1847
[SPD] (concentration) [1, 5]: 4.438
[SPM] (concentration) [1, 5]: 7.985
PUT (amount) [1, 6]: 34544
SPD (amount) [1, 6]: 848798
SPM (amount) [1, 6]: 693740
[PUT] (concentration) [1, 6]: 0.01681
[SPD] (concentration) [1, 6]: 1.042
[SPM] (concentration) [1, 6]: 2.242
PUT (amount) [1, 7]: 27933
SPD (amount) [1, 7]: 323941
SPM (amount) [1, 7]: 212917
[PUT] (concentration) [1, 7]: 0.0136
[SPD] (concentration) [1, 7]: 0.3976
[SPM] (concentration) [1, 7]: 0.6881
PUT (amount) [1, 8]: 7198
SPD (amount) [1, 8]: 231781
SPM (amount) [1, 8]: 236426
[PUT] (concentration) [1, 8]: 0.003504
[SPD] (concentration) [1, 8]: 0.2845
[SPM] (concentration) [1, 8]: 0.764
24 hr avg put [1]: 0.07535
24 hr avg spd [1]: 1.878
24 hr avg spm [1]: 3.41
48 hr avg put ([1]; 48 hour treatment): 0.02698
48 hr avg spd ([1]; 48 hour treatment): 2.037
48 hr avg spm ([1]; 48 hour treatment): 5.345
